The text below walks through data of patent EP1300145A1, “THERAPEUTIC OR […] FOR MOOD DISORDERS OR ANXIETY DISORDERS” (TORAY INDUSTRIES, INC., priority 2000, dated 2002).

In one assay the test system is male SD rats. Put plainly: elevated plus-maze test in rats (antianxiety effect). The class given is in vivo. The conditions noted are these: subcutaneous; for Time spent on open arms: 30 minutes after administration, 3 minute test, Saline,s.c. 19.1 ± 6.3; for antianxiety effect: overall statement in words. The text has this:
(§1) The isoquinoline derivative represented by formula (I) has a marked effect in the forced swim test, which is the animal model for mood disorder, and in the elevated plus-maze test, which is the animal model for anxiety disorder. Thus, the isoquinoline derivative can be used as a drug for curing or preventing mood disorder or anxiety disorder of mammal and, in particular, human beings. It may also be used in manufacturing of a medicament for curing or preventing mood disorder or anxiety disorder. The evaluation using the above-described animal models can be conducted by a method described in published references [Nature vol. 266, 730 (1977) or Jpn. J. Psychopharmacol vol. 15, 125 (1995)], but the method is not limited to this.
The experiment was conducted on male SD rats. In the elevated plus-maze test, the elevated plus-maze (manufactured by NeuroScience, Inc.) consisting of closed arms and open arms was used. In the experiment, a rat was placed on an open arm 30 minutes after the drug administration (subcutaneous administration), and the number of entries to the open and closed arms and the time spent in the open arms were measured. The test was conducted for 3 minutes. The rat was assumed to have made entries when all four legs have entered the arm. The ratio of the time spent in the open arms and the ratio of the entries to the open arms were calculated according to the following equations: Ratio of the time spent in the open arms (%) = {(time spent in the open arms)/(total time)} × 100 [formula] Ratio of the entries to the open arms (%) = {(number of entries to the open arms)/(total number of entries)} × 100 [formula]
The vertical axis on the left indicates the ratio of the time spent in the open arms (%) and the ratio of the entries to the open arms (%). The vertical axis on the right indicates the total number of entries. The horizontal axis indicates a control group and treatment groups. Open columns indicate the ratio of the time spent in the open arms (%) and hatched columns indicate the ratio of the entries to the open arms (%). Closed circles indicate the total number of entries. All data are indicated by average ±standard error. In a significance test, the difference was assumed to be significant at a significance level of 5% or less by Dunnett's multiple comparison. In the test, the drug is assumed to have an antianxiety effect when there are an increase in time spent on open arms and an increase in ratio of entries to open arms under administration.
The antianxiety effect of Compounds 3, 5, and 6 was assessed as in Example 1. […]

The subject of another assay is male ICR mice. The experiment in a line: forced swim test in mice (antidepressant effect). It is filed as in vivo. The following applies: for Immobility time: Saline,s.c. 136.3 ± 11.4; for antidepressant effect: subcutaneous, overall statement in words.
Excerpt: as §1
In the experiment, male ICR mice were used. In the forced swim test, the tank for forced swim used was a transparent cylindrical tank made of plastic (inner diameter: 10 cm, height: 30 cm), and water at 25°C was contained up to 14 cm in height. A mouse was placed in water, and its swimming time during 2 to 6 minutes after placement was measured. The drug was subcutaneously administered 30 minutes before testing. The vertical axis indicates the swimming time (sec) during the measurement time (4 min). The open column indicates a saline-treated group and the hatched columns indicate Compound 1 treatment groups. All data are indicated by average ±standard error. In a significance test, the difference was assumed to be significant at a significance level of 5% or less by Dunnett's multiple comparison. In the test, the drug is assumed to have an antidepressant effect when there is an increase in swimming time under administration.
The antidepressant effect of Compound 3, 5, and 6 was assessed as in Example 3. […]

[1] abbreviates: 30 mg/kg, subcutaneous 30 minutes before testing.
Setting [2] is: Fig. 1, compared with the control group (saline-treated group), Dunnett's multiple comparison.

As to `CN1CC[C@]2(c3cccc(O)c3)Cc3nc4ccccc4c(N)c3C[C@H]2C1` (relative stereo) [Compound 5, 2-methyl-4aα-(3-hydroxyphenyl)-11-amino-1,2,3,4,4a,5,12,12aβ-octahydro-quinolino[2,3-g]isoquinoline], the “Time spent on open arms” value in the assay with male SD rats (10 mg/kg) was 25.4 ± 10.2 s. In addition, the antianxiety effect entry in the assay on male SD rats was “significant antianxiety effects”. In the assay on male ICR mice (10 mg/kg, subcutaneous 30 minutes before testing), the “Immobility time” value turned out to be 94.3 ± 13 s. Besides, the antidepressant effect result with male ICR mice is on record as “significant antidepressant effect”.
With `Oc1cccc([C@]23CCN(CCc4ccccc4)C[C@@H]2Cc2cc4ccccc4nc2C3)c1` (relative stereo) [Compound 6, 2-phenethyl-4aα-(3-hydroxyphenyl)-1,2,3,4,4a,5,12,12aβ-octahydro-quinolino [2,3-g]isoquinoline], the “Time spent on open arms” value with male SD rats (30 mg/kg) is 37.9 ± 4.4 s. In the assay with male SD rats, the antianxiety effect entry was “significant antianxiety effects”. Further, the “Immobility time” value in the assay on male ICR mice (setting [1]) was found to be 58.7 ± 9.1 s. The antidepressant effect entry in the assay with male ICR mice was “significant antidepressant effect”.
For the compound `CN1CC[C@]2(c3cccc(O)c3)Cc3nc4ccccc4cc3C[C@@H]2C1` [Compound 1, (4aS,12aS)-2-methyl-4a-(3-hydroxyphenyl)-1,2,3,4,4a,5,12,12a-octahydroquinolino[2,3-g]isoquinoline], in the assay with male SD rats (setting [2]), the “ratio of the entries to open arms” value is listed as “dose-dependent significant increase” and the “time spent in open arms” value is given as “dose-dependent significant increase”. The antianxiety effect result in the assay on male SD rats is on record as “confirmed to have an antianxiety effect”. Besides, the swimming time result in the assay with male ICR mice (subcutaneous 30 minutes before testing, 2 to 6 minutes after placement, Fig. 2, compared with the control group (saline-treated group)) was “dose-dependent significant increase”. Also, the antidepressant effect result with male ICR mice is recorded as “confirmed to have an antidepressant effect”.
Consider `Cc1c2c(nc3ccccc13)C[C@@]1(c3cccc(O)c3)CCN(C)C[C@@H]1C2` (relative stereo) [Compound 3, 2-methyl-4aα-(3-hydroxyphenyl)-11-methyl-1,2,3,4,4a,5,12,12aβ-octahydro-quinolino[2,3-g]isoquinoline], for which, in the assay on male SD rats (30 mg/kg), the “Time spent on open arms” value was found to be 36.6 ± 13.2 s. Also, the antianxiety effect entry in the assay on male SD rats is “significant antianxiety effects”. For the same compound, the “Immobility time” value in the assay on male ICR mice (setting [1]) came out at 75.4 ± 11.6 s. In the assay with male ICR mice, the antidepressant effect result is listed as “significant antidepressant effect”.
